Laboratory results: ChEMBL document CHEMBL5143607, “Discovery and structure-activity relationships of a novel oxazolidinone class of bacterial type II topoisomerase inhibitors” (Bioorg Med Chem Lett, 2022)
In brackets after ≈: the same amount, converted by molar mass.

Key:
[1] = Cytotoxicity against human HepG2 cells assessed as reduction in cell viability for 24 hrs by Celltiter-Glo assay; type: toxicity, cell-based
Acinetobacter baumannii = assay: Antibacterial activity against Acinetobacter baumannii NCTC 13420 assessed as bacterial growth inhibition by CLSI protocol based assay; type: functional
Klebsiella pneumoniae = assay: Antibacterial activity against Klebsiella pneumoniae ATCC 700603 assessed as bacterial growth inhibition by CLSI protocol based assay; type: functional
Pseudomonas aeruginosa = assay: Antibacterial activity against Pseudomonas aeruginosa ATCC 27853 assessed as bacterial growth inhibition by CLSI protocol based assay; type: functional
Escherichia coli [2] = assay: Antibacterial activity against Escherichia coli W4573 assessed as bacterial growth inhibition by CLSI protocol based assay; type: functional
Escherichia coli [3] = assay: Antibacterial activity against Escherichia coli N43 assessed as bacterial growth inhibition by CLSI protocol based assay; type: functional
Staphylococcus aureus = assay: Antibacterial activity against Staphylococcus aureus ATCC 29213 assessed as bacterial growth inhibition by CLSI protocol based assay; type: functional
[4] = target: Voltage-gated inwardly rectifying potassium channel KCNH2 (Homo sapiens, UniProt Q12809); assay: Inhibition of human ERG by Ionworks electrophysiology assay; type: toxicity
[5] = Lipophilicity, logD of the compound by shake flask assay; type: physicochemical; conditions: octanol/water
[6] = Protein binding in human plasma by equilibrium dialysis assay; type: ADME, cell-free; conditions: read-out: PPB (converted)
DNA gyrase = DNA gyrase (Escherichia coli, UniProt P0AES4+P0AES6); assay: Inhibition of Escherichia coli DNA gyrase supercoiling activity; type: protein-complex assay
[7] = Inhibition of Escherichia coli topoisomerase 4 assessed as reduction in decatenation
[8] = Intrinsic clearance in mouse liver microsomes in presence of NADPH and measured upto 45 mins; type: ADME, Microsome; conditions: read-out: CLH
[9] = Intrinsic clearance in human liver microsomes in presence of NADPH and measured upto 45 mins; type: ADME, Microsome; conditions: read-out: CLH
[10] = Kinetic solubility of compound; type: physicochemical; conditions: read-out: Kinetic_solubility
[11] = Plasma protein binding in mouse assessed as free fraction by equilibrium dialysis assay; type: ADME, cell-free
[12] = target: DNA topoisomerase 2-alpha (Homo sapiens, UniProt P11388); assay: Inhibition of human topoisomerase 2 assessed as reduction in decatenation
Escherichia coli [13] = assay: Resistance development in Escherichia coli ATCC25922 assessed as spontaneous resistance frequency at 4 times MIC by resistance development assay; type: functional
hERG (KCNH2) = hERG (KCNH2) (Homo sapiens, UniProt Q12809); assay: Inhibition of human ERG at 100 uM by Ionworks electrophysiology assay; type: toxicity
[14] = Protein binding in mouse plasma by equilibrium dialysis assay; type: ADME, cell-free; conditions: read-out: PPB (converted)

Voltage-gated inwardly rectifying potassium channel KCNH2, sequence (Q12809 whole entry): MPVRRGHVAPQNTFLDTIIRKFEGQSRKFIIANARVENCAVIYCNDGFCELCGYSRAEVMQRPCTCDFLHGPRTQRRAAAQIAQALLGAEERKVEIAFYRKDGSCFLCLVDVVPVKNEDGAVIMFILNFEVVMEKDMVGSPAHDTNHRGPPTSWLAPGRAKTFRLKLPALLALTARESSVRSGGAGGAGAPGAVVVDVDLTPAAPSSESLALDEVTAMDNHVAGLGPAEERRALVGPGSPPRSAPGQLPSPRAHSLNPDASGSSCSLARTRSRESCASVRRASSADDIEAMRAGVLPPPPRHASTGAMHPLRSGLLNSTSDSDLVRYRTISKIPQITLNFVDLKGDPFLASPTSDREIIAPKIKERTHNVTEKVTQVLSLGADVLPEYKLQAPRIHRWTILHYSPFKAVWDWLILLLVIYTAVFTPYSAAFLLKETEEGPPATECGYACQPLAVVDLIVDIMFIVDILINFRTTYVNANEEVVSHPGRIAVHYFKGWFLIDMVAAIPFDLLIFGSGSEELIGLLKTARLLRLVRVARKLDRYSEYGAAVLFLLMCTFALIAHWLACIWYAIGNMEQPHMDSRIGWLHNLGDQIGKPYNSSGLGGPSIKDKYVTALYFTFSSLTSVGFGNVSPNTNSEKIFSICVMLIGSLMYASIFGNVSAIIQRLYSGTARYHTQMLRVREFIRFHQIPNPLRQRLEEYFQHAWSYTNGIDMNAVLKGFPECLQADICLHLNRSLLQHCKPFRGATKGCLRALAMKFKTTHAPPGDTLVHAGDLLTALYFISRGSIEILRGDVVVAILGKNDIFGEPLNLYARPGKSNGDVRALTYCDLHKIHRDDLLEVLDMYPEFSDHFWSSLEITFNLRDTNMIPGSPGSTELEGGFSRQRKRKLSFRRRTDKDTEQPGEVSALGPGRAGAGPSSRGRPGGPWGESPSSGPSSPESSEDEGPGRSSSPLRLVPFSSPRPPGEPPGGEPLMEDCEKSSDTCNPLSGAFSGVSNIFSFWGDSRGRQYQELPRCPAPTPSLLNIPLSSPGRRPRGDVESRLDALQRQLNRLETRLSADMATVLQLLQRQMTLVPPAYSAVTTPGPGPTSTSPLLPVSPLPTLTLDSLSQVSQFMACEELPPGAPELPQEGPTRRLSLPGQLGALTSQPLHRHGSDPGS
hERG (KCNH2), sequence (Q12809 whole entry): as above
DNA topoisomerase 2-alpha, sequence (P11388 whole entry): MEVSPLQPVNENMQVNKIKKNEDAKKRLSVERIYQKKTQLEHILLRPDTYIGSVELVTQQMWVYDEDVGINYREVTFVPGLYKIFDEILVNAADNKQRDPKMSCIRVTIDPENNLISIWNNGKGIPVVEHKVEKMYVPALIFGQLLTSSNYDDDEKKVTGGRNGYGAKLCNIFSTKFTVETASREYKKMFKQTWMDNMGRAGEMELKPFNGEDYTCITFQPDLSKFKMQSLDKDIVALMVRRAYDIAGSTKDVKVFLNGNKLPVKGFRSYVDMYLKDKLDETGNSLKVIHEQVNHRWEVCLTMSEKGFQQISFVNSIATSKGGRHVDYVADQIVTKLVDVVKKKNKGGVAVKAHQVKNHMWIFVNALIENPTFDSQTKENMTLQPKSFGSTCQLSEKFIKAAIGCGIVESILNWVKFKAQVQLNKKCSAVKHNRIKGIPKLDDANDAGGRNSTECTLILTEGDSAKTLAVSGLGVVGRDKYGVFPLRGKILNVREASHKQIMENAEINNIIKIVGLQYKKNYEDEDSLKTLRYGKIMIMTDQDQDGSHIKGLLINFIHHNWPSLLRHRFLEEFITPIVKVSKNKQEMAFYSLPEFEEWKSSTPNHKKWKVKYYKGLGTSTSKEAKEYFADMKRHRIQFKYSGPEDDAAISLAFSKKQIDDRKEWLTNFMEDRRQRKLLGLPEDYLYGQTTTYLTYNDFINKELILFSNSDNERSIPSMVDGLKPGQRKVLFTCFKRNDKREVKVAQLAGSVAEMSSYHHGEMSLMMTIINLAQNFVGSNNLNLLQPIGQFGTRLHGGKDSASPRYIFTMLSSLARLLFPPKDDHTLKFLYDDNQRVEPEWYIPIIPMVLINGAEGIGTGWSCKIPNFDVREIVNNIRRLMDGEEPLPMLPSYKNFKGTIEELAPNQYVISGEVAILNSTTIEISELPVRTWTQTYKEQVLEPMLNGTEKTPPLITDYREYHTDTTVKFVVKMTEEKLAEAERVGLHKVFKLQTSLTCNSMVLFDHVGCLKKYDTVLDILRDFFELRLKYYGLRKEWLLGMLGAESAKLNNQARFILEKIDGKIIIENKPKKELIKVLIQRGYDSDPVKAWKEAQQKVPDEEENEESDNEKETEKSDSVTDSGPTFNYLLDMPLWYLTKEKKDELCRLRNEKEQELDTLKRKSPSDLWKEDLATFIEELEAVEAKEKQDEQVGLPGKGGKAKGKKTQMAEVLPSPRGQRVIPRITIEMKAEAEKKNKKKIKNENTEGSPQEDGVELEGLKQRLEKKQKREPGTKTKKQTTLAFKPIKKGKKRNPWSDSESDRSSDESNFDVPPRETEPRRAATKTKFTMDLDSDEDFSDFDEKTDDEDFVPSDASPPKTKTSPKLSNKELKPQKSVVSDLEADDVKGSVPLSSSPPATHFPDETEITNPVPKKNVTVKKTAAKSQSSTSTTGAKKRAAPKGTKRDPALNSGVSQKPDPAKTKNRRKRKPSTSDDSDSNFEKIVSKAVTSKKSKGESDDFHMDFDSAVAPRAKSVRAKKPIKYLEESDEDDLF

SMILES	IC50 at 24 h [1]	MIC (Acinetobacter baumannii)	MIC (Klebsiella pneumoniae)	MIC (Pseudomonas aeruginosa)	MIC (Escherichia coli [2])	MIC (Escherichia coli [3])	MIC (Staphylococcus aureus)	IC50 [4]	logD [5]	fraction unbound [6]	IC50 (DNA gyrase)	IC50 [7]	microsomal CLint [8]	microsomal CLint [9]	solubility kinetic [10]	fraction unbound [11]	IC50 [12]	Activity (Escherichia coli [13])	inhibition at 100 µM (hERG (KCNH2))	fraction unbound [14]
COc1ccc2ccc(=O)n(CCN[C@@H]3CC[C@@H]4[C@@H](C3)OC(=O)N4c3ccc4c(n3)NC(=O)CO4)c2n1	64 µg/mL (≈ 126 µM)	0.06 µg/mL (≈ 0.118 µM)	1 µg/mL (≈ 1.97 µM)	0.25 µg/mL (≈ 0.494 µM)	0.03 µg/mL (≈ 0.0592 µM)	< 0.004 µg/mL	0.03 µg/mL (≈ 0.0592 µM)	10 µM	1.8	0.947										
COc1ccc2ncc(=O)n(CCN[C@H]3CC[C@H]4[C@H](C3)OC(=O)N4c3ccc4c(n3)NC(=O)CO4)c2n1	> 64 µg/mL	0.06 µg/mL (≈ 0.118 µM)	4 µg/mL (≈ 7.88 µM)	4 µg/mL (≈ 7.88 µM)	0.25 µg/mL (≈ 0.493 µM)	≤ 0.008 µg/mL	0.015 µg/mL (≈ 0.0296 µM)	7 µM	1.6											
COc1ncc2ccc(=O)n(CCN[C@H]3CC[C@H]4[C@H](C3)OC(=O)N4c3ccc4c(n3)NC(=O)CO4)c2n1		3.2 µg/mL (≈ 6.31 µM)	> 64 µg/mL	> 64 µg/mL	32 µg/mL (≈ 63.1 µM)	1 µg/mL (≈ 1.97 µM)	2 µg/mL (≈ 3.94 µM)		1.79											
O=C1COc2ccc(N3C(=O)O[C@H]4C[C@@H](NCCCn5c(=O)cnc6ccc(F)cc65)CC[C@@H]43)nc2N1	> 128 µg/mL	0.12 µg/mL (≈ 0.236 µM)	2 µg/mL (≈ 3.93 µM)	1 µg/mL (≈ 1.97 µM)	0.12 µg/mL (≈ 0.236 µM)	0.25 µg/mL (≈ 0.492 µM)	0.25 µg/mL (≈ 0.492 µM)	13 µM	1.26											
COc1cnc2ccc(=O)n(CCCN[C@H]3CC[C@H]4[C@H](C3)OC(=O)N4c3ccc4c(n3)NC(=O)CO4)c2c1	> 64 µg/mL	0.5 µg/mL (≈ 0.961 µM)	8 µg/mL (≈ 15.4 µM)	2 µg/mL (≈ 3.84 µM)	0.25 µg/mL (≈ 0.48 µM)	0.008 µg/mL (≈ 0.0154 µM)	0.06 µg/mL (≈ 0.115 µM)	> 100 µM	0.94		0.46 µM	0.015 µM	9 µL/min/mg	< 3 µL/min/mg	> 100 µM	> 0.3	> 100 µM	3.2 10^-7No_unit		
N#Cc1ccc2ccc(=O)n(CCCN[C@H]3CC[C@H]4[C@H](C3)OC(=O)N4c3ccc4c(n3)NC(=O)CO4)c2c1	55 µg/mL (≈ 107 µM)	0.12 µg/mL (≈ 0.233 µM)	2 µg/mL (≈ 3.89 µM)	1 µg/mL (≈ 1.94 µM)	0.06 µg/mL (≈ 0.117 µM)	≤ 0.016 µg/mL	0.06 µg/mL (≈ 0.117 µM)	7 µM	1.03											
COc1ccc2ccc(=O)n(CCCN[C@H]3CC[C@H]4[C@H](C3)OC(=O)N4c3ccc4c(n3)NC(=O)CO4)c2n1	40 µg/mL (≈ 76.8 µM)	0.06 µg/mL (≈ 0.115 µM)	8 µg/mL (≈ 15.4 µM)	4 µg/mL (≈ 7.68 µM)	0.25 µg/mL (≈ 0.48 µM)	≤ 0.002 µg/mL	0.015 µg/mL (≈ 0.0288 µM)		1.61										97%	
COc1cc2c(ccc(=O)n2CCN[C@H]2CC[C@H]3[C@H](C2)OC(=O)N3c2ccc3c(n2)NC(=O)CO3)cn1		0.5 µg/mL (≈ 0.987 µM)	32 µg/mL (≈ 63.2 µM)	16 µg/mL (≈ 31.6 µM)	2 µg/mL (≈ 3.95 µM)	0.06 µg/mL (≈ 0.118 µM)	0.5 µg/mL (≈ 0.987 µM)		1.69										83%	
N#Cc1ccc2c(ccc(=O)n2CCN[C@H]2CC[C@H]3[C@H](C2)OC(=O)N3c2ccc3c(n2)NC(=O)CO3)c1		8 µg/mL (≈ 16 µM)	> 64 µg/mL	> 64 µg/mL	4 µg/mL (≈ 7.99 µM)	0.06 µg/mL (≈ 0.12 µM)	4 µg/mL (≈ 7.99 µM)		1.69										56%	
COc1ccc2ccc(=O)n(CCN[C@H]3CC[C@H]4[C@@H](C3)OC(=O)N4c3ccc4c(n3)NC(=O)CO4)c2n1	> 8 µg/mL	0.12 µg/mL (≈ 0.237 µM)	8 µg/mL (≈ 15.8 µM)	2 µg/mL (≈ 3.95 µM)	0.5 µg/mL (≈ 0.987 µM)	< 0.008 µg/mL	0.03 µg/mL (≈ 0.0592 µM)	3 µM	2	0.919										0.878
N#Cc1cnc2ccc(=O)n(CCN[C@H]3CC[C@H]4[C@H](C3)OC(=O)N4c3ccc4c(n3)NC(=O)CS4)c2c1	> 128 µg/mL	0.12 µg/mL (≈ 0.232 µM)	16 µg/mL (≈ 30.9 µM)	2 µg/mL (≈ 3.86 µM)	0.5 µg/mL (≈ 0.966 µM)	0.004 µg/mL (≈ 0.00773 µM)	0.03 µg/mL (≈ 0.058 µM)	20 µM	1.42											
O=C(O)c1cn(C2CC2)c2cc(N3CCNCC3)c(F)cc2c1=O [CIPROFLOXACIN]	> 128 µg/mL											0.03 µM								
